Tests used:
[1] = Distribution coefficient (K) of amides between water-immiscible organic solvent and water (recovery of amides from aqueous solution); type: physicochemical; conditions: 25° C., stirred 0.5 h
Experimental: A mixture of amide (weight of amide (W): 0.2-0.5 g), water (20-100 mL) and water immiscible organic solvent (the same volume as water) was stirred at 25° C. for 0.5 h. The organic layer was thoroughly separated, dried over Na2SO4, filtered and concentrated in vacuo to recover the amide. Distribution coefficient K was calculated according to the formula K=Wo/W−Wo, where Wo is weight of the recovered amide in g. Distribution coefficients of 3,5,5-trimethylhydantoin (3,5,5-TMH), 4,4-dimethyloxazolidin-2-one (DMO), 5,5-dimethylhydantoin (DMH) and succinimide in hexane, benzene, CCl4 and DCM are shown in Table 3.1.

[2] = shake-flask, equal volumes, gravimetric recovery from organic layer; conditions: 25 °C
[3] = PhH (benzene) / water (equal volumes)

| SMILES | melting point | Distribution coefficient (K) ([1]; CCl4 / water (equal volumes)) | Distribution coefficient (K) ([1]; DCM / water (equal volumes)) | Distribution coefficient (K) [1, 3] | Distribution coefficient (K) ([1]; hexane / water (equal volumes)) | partition coefficient dichloromethane / water [2] |
| --- | --- | --- | --- | --- | --- | --- |
| CC1(C)COC(=O)N1I | 148 to 149 °C (dec.) | – | – | – | – | – |
| CC1(C)NC(=O)NC1=O [DMH, 5,5-dimethylhydantoin, reference compound] | – | 0.1≦ | 0.1≦ | 0.1≦ | 0.1≦ | – |
| CC1(C)COC(=O)N1 [DMO, 4,4-dimethyloxazolidin-2-one] | – | 0.1≦ | 0.5 | 0.1≦ | 0.1≦ | 0.5 mass ratio (equal phase volumes) |
| O=C1CCC(=O)N1 [succinimide, reference compound] | – | 0.1≦ | 0.1≦ | 0.1≦ | 0.1≦ | – |

Next, values leading:

| melting point | Distribution coefficient (K) ([1]; CCl4 / water (equal volumes)) | Distribution coefficient (K) ([1]; DCM / water (equal volumes)) | Distribution coefficient (K) [1, 3] | Distribution coefficient (K) ([1]; hexane / water (equal volumes)) | partition coefficient dichloromethane / water [2] | SMILES |
| --- | --- | --- | --- | --- | --- | --- |
| 198 to 199 °C (dec.) | – | – | – | – | – | CN1C(=O)N(I)C(C)(C)C1=O [1-ITMH, 1-iodo-3,5,5-trimethylhydantoin] |
| – | 0.1≦ | 1.6 | 0.1≦ | 0.1≦ | 1.6 mass ratio (equal phase volumes) | CN1C(=O)NC(C)(C)C1=O [3,5,5-TMH, 3,5,5-trimethylhydantoin] |
| 213 to 214 °C (dec.) | – | – | – | – | – | CN1C(=O)N(I)C(=O)C1(C)C [3-ITMH, 3-iodo-1,5,5-trimethylhydantoin] |

Reference: patent US9637462B2, “Process for the preparation of N-iodoamides” (TECHNION RESEARCH & DEVELOPMENT FOUNDATION LIMITED, priority 2013, dated 2017)
